How the values were obtained:
[1] = test system: uPA and MMP-3; assay: Inhibition of uPA and MMP-3-mediated KGF-2 degradation (dual protease assay); assay type: biochemical, human; conditions: uPA and MMP-3 together / KGF-2; inhibitors used (100 μM), alone or in combination
Procedure: The extent of proteolysis of the growth factors was assayed by incubating TGF-β2, VEGF, PDGF-BB and KGF-2 with the proteases uPA, plasmin, MMP-3 and MMP-13 in assay buffer (either uPA/plasmin buffer, 50 mM tris-HCl, pH 7.4 or MMP assay buffer, 100 mM Tris, 10 mM NaCl, 10 mM CaCl2, 0.05% (w/v) Brij 35, pH 7.5). […] The growth factors were added to the incubation mixture at a final concentration of […], unless otherwise stated.
The effects of uPA were determined by incubation at a typical final concentration of 25 μg/ml (1500 U/ml) with each growth factor. The effects of plasmin were determined at a typical final concentration of 0.1 mg/ml by incubation with the individual growth factors in assay buffer. MMP-3 and -13 were incubated at a typical final concentration of 10 nM with the growth factors in assay buffer. Dual protease assays carried out with uPA and MMP-3 together were performed in 100 mM Tris, […], 10 mM CaCl2, 0.05% (w/v) Brij 35, pH 7.5. All incubations were performed in siliconised tubes (Sigma Aldrich, UK).
The inhibitors used in these experiments were compound 9454, compound 9470 and compound 5214. These were dissolved in DMSO at a concentration of 10 mM. Typical final concentrations for these inhibitors were in the range of 100 μM to 10 nM. Aprotinin was dissolved in the Tris buffer at 10 mg/ml and used at a typical concentration of 10 μg/ml. […]

[2] = target: T1, catalytic domain of human MMP-3 (Homo sapiens, UniProt P08254); assay: MMP-3 fluorogenic inhibition assay; assay type: biochemical
T1 construct: made in house
T1 sequence (P08254 100-272 limits assumed): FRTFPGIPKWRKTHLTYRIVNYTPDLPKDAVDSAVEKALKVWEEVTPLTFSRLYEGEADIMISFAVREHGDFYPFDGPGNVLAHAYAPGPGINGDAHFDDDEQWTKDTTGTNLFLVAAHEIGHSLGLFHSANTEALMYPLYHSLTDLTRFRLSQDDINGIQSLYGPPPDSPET
Procedure: All enzymes were pre-activated at 37° C. with aminophenylmercuric acetate (APMA) or trypsin before being made up to the final concentrations used in the assay.
For MMP-1, the assay buffer used was 50 mM Tris, 200 mM NaCl, 5 mM CaCl2, 20 μM ZnCl2, 0.05% (w/v) Brij 35, pH 7.5. […] For MMP-13, the assay buffer used was 50 mM Tris, pH 7.5, 200 mM NaCl, 5 mM CaCl2, […] and 0.02% (w/v) Brij 35.
MMP-2, MMP-3 and MMP-9 inhibition was assayed by incubating activated catalytic domain of human MMP-2, MMP-3 and MMP-9 at 1 nM in assay buffer with 5 μM substrate Mca-Arg-Pro-Lys-Pro-Tyr-Ala-Nva-Trp-Met-Lys(Dnp)-NH2, and six different concentrations of inhibitor. The incubation was performed at 37° C. for 60 minutes.
For MMP-2, the final assay concentrations of inhibitors used were 1000, 800, 600, 400, 200 and 100 nM. For MMP-3, the final assay concentrations of inhibitors used were 5, 4, 3, 2, 1 and 0.5 nM. For MMP-9 and MMP-14, the final assay concentrations of inhibitors used were 5, 4, 3, 2, 1 and 0.5 μM.
All assays were carried out in a black 96-well plate with a final volume of 100 μl in each well. Inhibitors were dissolved in dimethylsulphoxide (DMSO) to 1 mM. Solutions were then serially diluted in buffer to give the final concentrations shown.
These were estimated using the following equation: IC50=(Ki*[…], where S is the substrate concentration and Km the Michaelis-Menton coefficient. Serine Protease Assays

[3] = target: T2, MMP-13 (Homo sapiens, UniProt P45452); assay: Reduction of MMP-13-catalysed degradation of KGF-2; assay type: biochemical; conditions: MMP-13 / KGF-2, read-out: Percentage inhibition of proteolysis
T2 construct: made in house

Selectivity among MMPs (in words) ([2]; from Ki values of Table 3 (MMP-1, -2, -3, -9, -13, -14)): selective MMP-3 inhibitor
Ki ([2]; read-out: Calculated Ki(nM) MMP-3): 44 nM
inhibition at 0.1 µM ([3]; inhibitor 0.1 μM): 1.6%
inhibition at 1 µM ([3]; inhibitor 1 μM): 10%
inhibition at 10 µM ([3]; inhibitor 10 μM): 23.7%
inhibition at 100 µM ([3]; inhibitor 100 μM): 82.9%
SMILES: COC[C@@H](NC(=O)[C@@H](NC(=O)[C@H](CCCc1ccc(-c2cccc(OC)c2)c(C)c1)CC(=O)O)C(C)(C)C)c1ccccc1 [compound 9454, (3R)-3-({[(1S)-2,2-Dimethyl-1-({[(1S)-2-methoxy-1-phenylethyl]amino}carbonyl)propyl]amino}carbonyl)-6-(3′-methoxy-2-methylbiphen-4-yl)hexanoic acid]
Percentage inhibition of proteolysis [1]: 16.3
